Results as given in US20260216157A1, “TETRAHYDROTHIOPHENE DERIVATIVE AND USE THEREOF IN MEDICINE” (Haisco Pharmaceutical Group Co., Ltd., priority 2023, published 2026).

How the values were obtained:
hNav1.8 = biological target: T1, hNav1.8 (Homo sapiens, UniProt Q9Y5Y9); experiment: Nav1.8 manual patch clamp test; format: cell-based; conditions: CHO cells stably expressing human Nav1.8; whole-cell patch clamp, half-inactivated state; read-out: Inhibitory activity (IC50) against hNav1.8
T1 construct: expressed in transfected cells; host or cells: CHO
T1 sequence (Q9Y5Y9 whole entry): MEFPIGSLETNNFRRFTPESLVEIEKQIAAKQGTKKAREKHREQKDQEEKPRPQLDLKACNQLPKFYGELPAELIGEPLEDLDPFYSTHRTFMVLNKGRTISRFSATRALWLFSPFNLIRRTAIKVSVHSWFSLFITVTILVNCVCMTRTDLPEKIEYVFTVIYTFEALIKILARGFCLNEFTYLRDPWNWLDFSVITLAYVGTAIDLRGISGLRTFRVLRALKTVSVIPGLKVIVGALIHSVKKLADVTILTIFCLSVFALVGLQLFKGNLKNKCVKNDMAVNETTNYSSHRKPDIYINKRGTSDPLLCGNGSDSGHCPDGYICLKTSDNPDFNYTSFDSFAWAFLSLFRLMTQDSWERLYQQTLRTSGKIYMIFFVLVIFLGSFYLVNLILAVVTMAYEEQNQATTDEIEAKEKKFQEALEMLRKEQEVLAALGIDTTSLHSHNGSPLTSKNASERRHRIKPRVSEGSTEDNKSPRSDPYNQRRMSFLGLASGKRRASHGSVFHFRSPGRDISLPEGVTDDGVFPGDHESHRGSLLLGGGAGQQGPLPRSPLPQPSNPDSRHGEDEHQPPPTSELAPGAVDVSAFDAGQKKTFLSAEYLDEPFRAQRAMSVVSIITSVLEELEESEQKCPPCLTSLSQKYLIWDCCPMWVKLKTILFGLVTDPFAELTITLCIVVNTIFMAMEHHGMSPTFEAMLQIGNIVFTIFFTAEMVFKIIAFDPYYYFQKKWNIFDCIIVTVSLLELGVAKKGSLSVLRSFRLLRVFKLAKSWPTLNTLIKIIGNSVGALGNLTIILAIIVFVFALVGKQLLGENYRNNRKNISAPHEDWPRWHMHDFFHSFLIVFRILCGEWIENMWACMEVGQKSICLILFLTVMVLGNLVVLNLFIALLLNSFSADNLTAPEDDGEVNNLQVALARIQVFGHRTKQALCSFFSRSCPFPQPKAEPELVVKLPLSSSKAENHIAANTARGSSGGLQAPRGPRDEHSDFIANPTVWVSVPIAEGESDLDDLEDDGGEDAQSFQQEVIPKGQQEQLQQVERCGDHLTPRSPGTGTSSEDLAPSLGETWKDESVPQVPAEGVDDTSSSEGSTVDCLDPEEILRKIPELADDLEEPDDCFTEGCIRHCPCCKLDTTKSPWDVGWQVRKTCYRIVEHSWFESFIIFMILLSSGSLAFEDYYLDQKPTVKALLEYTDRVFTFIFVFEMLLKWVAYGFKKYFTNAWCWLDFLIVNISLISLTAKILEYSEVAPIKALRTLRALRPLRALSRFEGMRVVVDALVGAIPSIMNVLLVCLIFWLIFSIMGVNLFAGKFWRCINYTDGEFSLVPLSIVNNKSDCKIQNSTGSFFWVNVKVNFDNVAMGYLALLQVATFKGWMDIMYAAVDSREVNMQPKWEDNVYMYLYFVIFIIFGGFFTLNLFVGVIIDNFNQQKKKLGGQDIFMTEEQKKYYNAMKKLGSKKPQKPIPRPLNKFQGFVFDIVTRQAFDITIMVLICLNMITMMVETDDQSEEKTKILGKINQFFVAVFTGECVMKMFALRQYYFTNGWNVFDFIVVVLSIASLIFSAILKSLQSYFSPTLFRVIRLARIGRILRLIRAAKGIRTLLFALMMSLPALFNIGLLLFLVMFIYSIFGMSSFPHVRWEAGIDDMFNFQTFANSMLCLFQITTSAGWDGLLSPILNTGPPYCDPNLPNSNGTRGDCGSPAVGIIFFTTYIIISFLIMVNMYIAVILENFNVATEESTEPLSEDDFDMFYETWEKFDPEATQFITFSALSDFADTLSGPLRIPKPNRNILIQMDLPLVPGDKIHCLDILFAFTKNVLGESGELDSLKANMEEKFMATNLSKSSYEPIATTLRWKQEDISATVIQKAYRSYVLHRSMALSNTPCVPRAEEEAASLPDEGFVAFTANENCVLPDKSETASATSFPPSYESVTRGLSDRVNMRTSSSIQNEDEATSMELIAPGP
Procedure: Nav1.8 Manual Patch Clamp Test
CHO cell lines stably expressing human Nav1.8 were cultured in a Ham's F-12 medium containing 10% fetal bovine serum, 10 μg/mL Blasticidin, 200 μg/mL Hygromycin B and 100 μg/mL Zeocin. The cells were cultured at 37° C. with a carbon dioxide concentration of 5%. The old medium was removed, and the cells were rinsed once with PBS. Then, 1 mL of 0.25%-Trypsin-EDTA solution was added, and the cells were incubated at 37° C. for approximately 1.5 min. Once the cells detached from the bottom of the dish, complete medium pre-warmed to 37° C. was added. The cell suspension was gently triturated with a pipette to dissociate the clumped cells. The cell suspension was transferred to a sterile centrifuge tube and centrifuged at 1000 rpm for 5 min to collect the cells. The cells were seeded into 6 cm cell culture dishes at a density of 2.5×10^5 cells per cell culture dish (final volume: 5 mL) for expansion or maintenance culture. To maintain the electrophysiological activity of the cells, the cell density should not exceed 80%. Before patch clamp testing, the cells were dissociated with 0.25%-Trypsin-EDTA. 6.5×10^3 cells were plated onto coverslips and cultured in 24-well plates (final volume: […]) for 18 hours before detection.
The compound was dissolved in dimethyl sulfoxide (DMSO) and prepared into a 30 mM DMSO stock solution. The stock solution was diluted with the extracellular fluid (140 mM NaCl, 3.5 mM KCl, 1 mM MgCl2·6H2O, 2 mM CaCl2·2H2O, 10 mM D-Glucose, 10 mM HEPES and 1.25 mM NaH2PO4·2H2O; adjusted to pH 7.4 with NaOH) to the test concentration, and the final DMSO concentration of all test samples was 0.1%.
(3) Electrophysiological Test
First, the recording electrodes were pulled from capillary glass tubes by using a microelectrode puller. Then, the electrodes were filled with the intracellular fluid (50 mM CsCl, 10 mM NaCl, 10 mM HEPES, 60 mM CsF and 20 mM EGTA; adjusted to pH 7.2 with CsOH) and mounted onto the microelectrode holder. Under an inverted microscope, the microelectrode manipulator was used to immerse the electrodes into the extracellular fluid, and the pipette resistance (Rpip) was recorded. The electrodes were slowly brought into contact with the cell surface, and negative pressure suction was applied to form a […]. At this point, fast capacitance compensation was performed, and negative pressure was continuously applied to break the cell membrane, forming a whole-cell recording mode. Finally, slow capacitance compensation was performed, and experimental parameters such as series resistance (Rs) were recorded. No electric leakage compensation was applied. When the Nav1.8 current in whole-cell recording was stable, drug administration was initiated, with each drug concentration for approximately 5 min (or until the current was stable). The coverslips spread with the cells were placed in a recording chamber under the inverted microscope. The blank control extracellular fluid and the test compound working solution were perfused through the recording chamber via the gravity-driven perfusion method, thereby acting on the cells, and a peristaltic pump was used to facilitate liquid exchange. The current recorded from cells in compound-free extracellular fluid was used as the control group. All electrophysiological experiments were conducted at room temperature. The inhibition rate of compounds on Nav1.8 was determined by calculating the relative percentage of peak currents generated before and after the cells were treated with the compounds.
The voltage stimulation protocol for whole-cell patch clamp recording of Nav1.8 sodium currents was described as follows. When the whole-cell sealing was formed, the cells were clamped at a voltage of −120 mV. First, the voltage was stepped from −110 mV to −30 mV in 10 mV increments and maintained for 5 s, followed by a depolarizing pulse to 0 mV to obtain a half-inactivation voltage (Vhalf). […]

[1] = Pharmacokinetic test in mice; format: in vivo; conditions: C57, mouse, PO 30 mg/kg, plasma
Procedure: Biological Test Example 3: Pharmacokinetic Test in Mice
Experimental animals: C57 mice, 22-25 g, 6 mice/compound.
Experimental design: on the day of the experiment, C57 mice were randomly grouped according to their body weights. The animals were fasted with water available for 12-14 h one day before the administration, and were fed 4 h after the administration.
Before and after the administration, 0.06 mL of blood was taken from the orbit under isoflurane anesthesia, and placed in an EDTAK2 centrifuge tube. Centrifugation was performed at 5000 rpm at 4° C. for 10 min, and the plasma was collected. The blood collection time points for both the intravenous administration group and the intragastric administration group were: 0, 5 min, 15 min, 30 min, 1 h, 2 h, 4 h, 7 h, 24 h and 48 h. Before analysis and detection, all samples were stored at −80° C. The samples were quantitatively analyzed by LC-MS/MS.

[2] = system: Spinal nerve ligation (SNL)-induced mouse model of neuropathic pain; experiment: Spinal nerve ligation (SNL)-induced mouse model of neuropathic pain; format: in vivo, C57BL/6J mice; conditions: SNL mice, mechanical pain threshold
Procedure: Biological Test Example 8: Spinal Nerve Ligation (SNL)-Induced Mouse Model of Neuropathic Pain
Male C57BL/6J mice purchased from Zhejiang Vital River Laboratory Animal Technology Co., Ltd. were adaptively raised for one week and then the models were established. […]
The mice that were unsuccessful in modeling were eliminated the next day after modeling (marker for successful modeling: mice with their hind paws curled up). […] After grouping, the test compounds (3 and 30 mg/kg) or vehicles (0.5% methylcellulose) were administered intragastrically, and the mechanical pain threshold (MPT) of the mice was measured at different time points after the administration. […]

CYP2C9 = biological target: T2, CYP2C9 (Homo sapiens, UniProt P11712); experiment: CYP450 enzyme inhibition test (human liver microsomes); format: in vitro ADME; conditions: read-out: IC50 against CYP2C9
T2 construct: co-incubated with human liver microsomes and test compounds; from tissue; host or cells: human liver microsomes
T2 sequence (P11712 whole entry): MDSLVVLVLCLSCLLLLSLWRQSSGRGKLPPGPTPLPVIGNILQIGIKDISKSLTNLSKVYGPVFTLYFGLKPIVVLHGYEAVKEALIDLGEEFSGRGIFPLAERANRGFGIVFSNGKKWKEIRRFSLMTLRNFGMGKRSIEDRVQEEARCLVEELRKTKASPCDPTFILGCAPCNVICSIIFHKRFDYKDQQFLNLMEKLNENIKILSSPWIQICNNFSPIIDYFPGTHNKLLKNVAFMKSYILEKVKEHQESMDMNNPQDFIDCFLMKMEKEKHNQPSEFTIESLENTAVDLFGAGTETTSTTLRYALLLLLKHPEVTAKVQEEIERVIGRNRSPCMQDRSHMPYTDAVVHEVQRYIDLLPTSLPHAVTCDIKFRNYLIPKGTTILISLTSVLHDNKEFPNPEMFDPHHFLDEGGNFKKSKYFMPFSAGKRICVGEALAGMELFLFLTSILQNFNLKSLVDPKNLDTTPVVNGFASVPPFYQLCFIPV
Procedure: (§1) Biological Test Example 6: CYP450 Enzyme Inhibition Test The purpose of this study was to evaluate the effect of test compounds on the activity of five isoenzymes (CYP1A2, CYP2C9, CYP2C19, CYP2D6, and CYP3A4) of human liver microsomal cytochrome P450 (CYP) by using an in vitro testing system. The specific probe substrates of CYP450 isoenzymes were co-incubated with human liver microsomes and test compounds at different concentrations, and the reaction was initiated by adding reduced nicotinamide adenine dinucleotide phosphate (NADPH). After the completion of the reaction, the samples were treated and subjected to the liquid chromatography-tandem mass spectrometry (LC-MS/MS) to quantitatively detect metabolites produced by the specific substrates. The changes in CYP enzyme activity were determined, and IC50 values were calculated to evaluate the inhibitory potential of the test compounds on each CYP enzyme subtype.

CYP1A2 = biological target: T3, CYP1A2 (Homo sapiens, UniProt P05177); experiment: as above; format: in vitro ADME; conditions: read-out: IC50 against CYP1A2
T3 construct: co-incubated with human liver microsomes and test compounds; from tissue; host or cells: human liver microsomes
T3 sequence (P05177 1-516): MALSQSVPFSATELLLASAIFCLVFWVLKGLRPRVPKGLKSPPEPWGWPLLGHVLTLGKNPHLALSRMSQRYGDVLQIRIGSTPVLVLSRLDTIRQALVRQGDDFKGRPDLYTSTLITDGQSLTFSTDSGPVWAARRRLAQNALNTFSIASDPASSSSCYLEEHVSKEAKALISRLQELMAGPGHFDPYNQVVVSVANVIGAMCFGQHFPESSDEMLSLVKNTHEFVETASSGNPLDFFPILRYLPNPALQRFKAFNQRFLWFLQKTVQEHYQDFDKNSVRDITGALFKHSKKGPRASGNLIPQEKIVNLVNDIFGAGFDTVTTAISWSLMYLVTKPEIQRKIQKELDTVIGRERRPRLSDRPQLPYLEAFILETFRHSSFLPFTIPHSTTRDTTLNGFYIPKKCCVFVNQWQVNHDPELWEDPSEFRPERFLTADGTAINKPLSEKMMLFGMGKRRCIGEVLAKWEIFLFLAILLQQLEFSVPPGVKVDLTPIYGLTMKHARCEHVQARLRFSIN
Procedure: as §1

CYP3A4 = biological target: T4, CYP3A4 (Homo sapiens, UniProt P08684); experiment: as above; format: in vitro ADME; conditions: read-out: IC50 against CYP3A4
T4 construct: co-incubated with human liver microsomes and test compounds; from tissue; host or cells: human liver microsomes
T4 sequence (P08684 whole entry): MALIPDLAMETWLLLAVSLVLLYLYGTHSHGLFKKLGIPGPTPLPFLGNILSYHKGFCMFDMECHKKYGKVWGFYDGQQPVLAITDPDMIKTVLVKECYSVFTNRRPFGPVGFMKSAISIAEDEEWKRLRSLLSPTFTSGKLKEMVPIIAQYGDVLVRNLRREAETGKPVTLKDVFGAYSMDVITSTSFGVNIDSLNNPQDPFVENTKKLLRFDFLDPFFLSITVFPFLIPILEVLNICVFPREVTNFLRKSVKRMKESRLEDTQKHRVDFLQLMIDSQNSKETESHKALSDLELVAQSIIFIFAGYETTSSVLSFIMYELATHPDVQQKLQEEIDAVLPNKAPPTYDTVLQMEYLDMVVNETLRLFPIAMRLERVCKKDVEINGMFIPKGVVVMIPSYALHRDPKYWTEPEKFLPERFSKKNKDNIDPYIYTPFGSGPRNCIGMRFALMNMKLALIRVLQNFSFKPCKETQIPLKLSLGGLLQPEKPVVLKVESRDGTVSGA
Procedure: as §1

CYP2D6 = biological target: T5, CYP2D6 (Homo sapiens, UniProt P10635); experiment: as above; format: in vitro ADME; conditions: read-out: IC50 against CYP2D6
T5 construct: co-incubated with human liver microsomes and test compounds; from tissue; host or cells: human liver microsomes
T5 sequence (P10635 whole entry): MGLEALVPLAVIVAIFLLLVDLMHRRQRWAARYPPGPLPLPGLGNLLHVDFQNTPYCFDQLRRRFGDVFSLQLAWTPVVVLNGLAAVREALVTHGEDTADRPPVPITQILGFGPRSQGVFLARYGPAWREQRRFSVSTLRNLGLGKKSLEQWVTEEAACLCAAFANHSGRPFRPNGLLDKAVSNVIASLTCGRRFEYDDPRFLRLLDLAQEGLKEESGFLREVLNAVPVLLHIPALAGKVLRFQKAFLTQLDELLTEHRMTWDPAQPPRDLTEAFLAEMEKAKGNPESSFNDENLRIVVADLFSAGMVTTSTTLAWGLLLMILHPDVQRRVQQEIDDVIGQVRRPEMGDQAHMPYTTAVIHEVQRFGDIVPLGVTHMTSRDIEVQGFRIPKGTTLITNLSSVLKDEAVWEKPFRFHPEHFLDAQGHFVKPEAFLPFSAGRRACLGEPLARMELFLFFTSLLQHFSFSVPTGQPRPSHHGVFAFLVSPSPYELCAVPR
Procedure: as §1

CYP2C19 = biological target: T6, CYP2C19 (Homo sapiens, UniProt P33261); experiment: as above; format: in vitro ADME; conditions: read-out: IC50 against CYP2C19
T6 construct: co-incubated with human liver microsomes and test compounds; from tissue; host or cells: human liver microsomes
T6 sequence (P33261 whole entry): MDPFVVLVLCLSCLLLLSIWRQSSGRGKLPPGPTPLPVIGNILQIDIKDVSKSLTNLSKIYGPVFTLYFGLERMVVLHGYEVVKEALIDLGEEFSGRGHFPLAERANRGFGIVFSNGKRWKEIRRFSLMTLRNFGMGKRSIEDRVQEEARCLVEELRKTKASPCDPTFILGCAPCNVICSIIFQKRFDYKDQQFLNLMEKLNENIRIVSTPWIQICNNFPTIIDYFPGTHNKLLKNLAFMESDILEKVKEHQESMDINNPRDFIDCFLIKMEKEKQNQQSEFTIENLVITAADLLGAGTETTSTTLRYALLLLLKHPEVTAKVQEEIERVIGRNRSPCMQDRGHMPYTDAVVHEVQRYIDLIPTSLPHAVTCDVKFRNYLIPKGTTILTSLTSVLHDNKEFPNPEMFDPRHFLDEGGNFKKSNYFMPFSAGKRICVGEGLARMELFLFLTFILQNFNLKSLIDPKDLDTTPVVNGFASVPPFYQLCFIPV
Procedure: as §1

Structure (SMILES) | IC50 (hNav1.8) | AUC(0-t) [1] | analgesic efficacy (area under the time-MPT curve) ([2]; 3 mg/kg intragastric) | analgesic efficacy (area under the time-MPT curve) ([2]; 30 mg/kg intragastric) | IC50 (CYP2C9) | IC50 (CYP1A2) | IC50 (CYP3A4) | IC50 (CYP2D6) | IC50 (CYP2C19)
COc1c(C2CC(C)(C(F)(F)F)SC2C(=O)Nc2ccnc(C(N)=O)c2)ccc(F)c1F (single isomer, unassigned) [Compound 31-1P1] | < 0.0001 µM | 61600 ± 9480 ng·h/mL |  |  |  |  |  |  | 
COc1c([C@H]2[C@H](C(=O)Nc3ccc(F)c(C(N)=O)c3)S[C@@](C)(C(F)(F)F)[C@H]2C)ccc(F)c1F [Compound 6-2a] | < 0.0001 µM |  | significant analgesic efficacy | significant analgesic efficacy |  |  |  |  | 
COc1c([C@H]2[C@H](C(=O)Nc3ccnc(P(C)(C)=O)c3)S[C@@](C)(C(F)(F)F)[C@H]2C)ccc(F)c1F [Compound 58] |  | 65100 ± 9200 ng·h/mL |  |  | > 30 µM | > 30 µM | > 30 µM | > 30 µM | > 30 µM
